Target: T1, p38a activated, mitogen-activated protein kinase-activated protein kinase 2 (MAPKAP-K2 or MK2) enzyme (Homo sapiens, UniProt P49137)
T1 construct: purchased Invitrogen PV3317
Assay: MK2 OMNIA biochemical assay (AssayQuant continuous-read kinase assay)
Details: [MK-2]=0.05 nM, [ATP]=100 μM, [AQT0425]=10 μM
Description: Example 56.2. Mitogen-Activated Protein Kinase-Activated Protein Kinase 2 AssayQuant Technologies® Assay for Compound Potency Assessment (MK2 OMNIA Biochemical Assay)
The protocol below describes a continuous-read kinase assay optimized to measure potency of compounds against p38a activated, mitogen-activated protein kinase-activated protein kinase 2 (MAPKAP-K2 or MK2) enzyme.
A 1.25× stock solution of MK2 (PV3317, from Invitrogen) and a 5× stock solution of ATP and Sox conjugated peptide substrate, AQT0425 (CSKS-AQT0425B, from AssayQuant Technologies), were prepared in 1× kinase reaction buffer consisting of 50 mM HEPES, pH 7.5, 0.01% Brij-35, 0.55 mM EGTA, 10 mM MgCl2 and 1 mM DTT.
10 μL of the ATP and substrate solution mix was added to a Coming (3574) 384-well, white, non-binding surface microtiter plate containing 0.5 μL of serially diluted test compounds prepared in DMSO. The reactions were started with the addition of 40 μL of the enzyme solution and monitored every 71 seconds for 240 min at kex 360/λem 485 in a Synergy H4 plate reader from BioTek at room temperature.
The initial linear portions of the net progress curves were fit according to a linear equation to yield the slope and percentage of inhibition (% inhibition) at each compound concentration. The net progress curves obtained during the entirety of reactions were also fit according to an ascending single-exponential equation (Eq. 1) to yield Vobs values at each compound concentration. Plots of % Inhibition versus degrader concentrations were fit according to a dose-response equation (Eq. 2) to generate IC50 and Hill slope values while plots of Vobs versus degrader concentration were fit according to Equation 3 (Eq. 3) to generate apparent Kinact values using the GraphPad PRISM software.
where F is the fluorescence intensity from the plate reader, V0 is a constant reflecting the relationship between the instrument readout and product concentration, t is time, e is Euler's number, and Vobs is the observed inactivation rate constant.
where % Inhibition is percentage of inhibition, IC50 is half maximal inhibitory concentration, [I] is the degraders concentration, and n is the Hill slope.
where kobs is the observed inactivation rate constant, Kinact is the apparent inactivation rate constant, K1 is the apparent inhibition constant, and [I] is the degrader concentration.

T1 sequence (P49137 whole entry): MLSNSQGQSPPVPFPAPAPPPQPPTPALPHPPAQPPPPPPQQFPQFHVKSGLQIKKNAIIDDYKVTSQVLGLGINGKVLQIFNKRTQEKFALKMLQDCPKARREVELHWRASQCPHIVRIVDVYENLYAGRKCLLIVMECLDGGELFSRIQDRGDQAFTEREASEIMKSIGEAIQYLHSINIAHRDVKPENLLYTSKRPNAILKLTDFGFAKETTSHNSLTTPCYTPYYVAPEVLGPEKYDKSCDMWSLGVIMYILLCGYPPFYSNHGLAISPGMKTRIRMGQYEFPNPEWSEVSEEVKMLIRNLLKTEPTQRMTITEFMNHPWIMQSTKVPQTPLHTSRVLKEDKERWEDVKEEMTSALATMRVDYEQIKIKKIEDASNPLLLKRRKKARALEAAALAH

C[C@@H]1COc2c(sc3ccc4nc(-c5cccc(N6CCN(CCN7CCN(c8ccc9c(C%10CCC(=O)NC%10=O)nn(C)c9c8)CC7)CC6)c5)ccc4c23)C(=O)N1 (stereo partly drawn) [Ex 17, 3-(1-Methyl-6-(4-(2-(4-(3-((R)-10-methyl-8-oxo-8,9,10,11-tetrahydro-[1,4]oxazepino[7′,6′:4,5]thieno[3,2-f]quinolin-3-yl)phenyl)piperazin-1-yl)ethyl)piperazin-1-yl)-1H-indazol-3-yl)piperidine-2,6-dione]
IC50: < 150 nM

C[C@@H]1CNc2c(sc3ccc4nc(-c5ccc(C(=O)N[C@H]6CC[C@H](CN7CCN(c8ccc9c(C%10CCC(=O)NC%10=O)nn(C)c9c8)CC7)CC6)cc5F)ccc4c23)C(=O)N1 (stereo partly drawn) [Ex 5, N-(trans-4-((4-(3-(2,6-dioxopiperidin-3-yl)-1-methyl-1H-indazol-6-yl)piperazin-1-yl)methyl)cyclohexyl)-3-fluoro-4-((R)-10-methyl-8-oxo-9,10,11,12-tetrahydro-8H-[1,4]diazepino[5′,6′:4,5]thieno[3,2-f]quinolin-3-yl)benzamide]
IC50: < 150 nM

C[C@@H]1COc2c(sc3ccc4nc(-c5ccc(N6CCN(CCN7CCN(c8ccc(C9CCC(=O)NC9=O)cc8)CC7)CC6)cc5)ccc4c23)C(=O)N1 (stereo partly drawn) [Ex 25, 3-(4-(4-(2-(4-(4-((R)-10-Methyl-8-oxo-8,9,10,11-tetrahydro-[1,4]oxazepino[7′,6′:4,5]thieno[3,2-f]quinolin-3-yl)phenyl)piperazin-1-yl)ethyl)piperazin-1-yl)phenyl)piperidine-2,6-dione]
IC50: 151 to 500 nM

C[C@@H]1CNc2c(sc3ccc4nc(-c5cnn(C6CN(CCN7CCN(c8ccc(C9CCC(=O)NC9=O)cc8)CC7)C6)c5)ccc4c23)C(=O)N1 (stereo partly drawn) [Ex 51, 3-(4-(4-(2-(3-(4-((R)-10-Methyl-8-oxo-9,10,11,12-tetrahydro-8H-[1,4]diazepino[5′,6′:4,5]thieno[3,2-f]quinolin-3-yl)-1H-pyrazol-1-yl)azetidin-1-yl)ethyl)piperazin-1-yl)phenyl)piperidine-2,6-dione]
IC50: < 150 nM

C[C@@H]1CNc2c(sc3ccc4nc(-c5ccc(N6CC7CC(C6)N7CCN6CCN(c7ccc(C8CCC(=O)NC8=O)cc7)CC6)cc5)ccc4c23)C(=O)N1 (stereo partly drawn) [Ex 24, 3-(4-(4-(2-(3-(4-((R)-10-Methyl-8-oxo-9,10,11,12-tetrahydro-8H-[1,4]diazepino[5′,6′:4,5]thieno[3,2-f]quinolin-3-yl)phenyl)-3,6-diazabicyclo[3.1.1]heptan-6-yl)ethyl)piperazin-1-yl)phenyl)piperidine-2,6-dione]
IC50: < 150 nM

C[C@@H]1CNc2c(sc3ccc4nc(-c5cn(C6CCN(CCN7CCC(c8ccc(C9CCC(=O)NC9=O)cc8)CC7)CC6)nn5)ccc4c23)C(=O)N1 (stereo partly drawn) [Ex 48, 3-(4-(1-(2-(4-(4-((R)-10-Methyl-8-oxo-9,10,11,12-tetrahydro-8H-[1,4]diazepino[5′,6′:4,5]thieno[3,2-f]quinolin-3-yl)-1H-1,2,3-triazol-1-yl)piperidin-1-yl)ethyl)piperidin-4-yl)phenyl)piperidine-2,6-dione]
IC50: < 150 nM

C[C@@H]1CNc2c(sc3ccc4nc(-c5ccc(C6CN(CCN7CCN(c8ccc(C9CCC(=O)NC9=O)cc8)CC7)C6)cc5)ccc4c23)C(=O)N1 (stereo partly drawn) [Ex 30, 3-(4-(4-(2-(3-(4-((R)-10-Methyl-8-oxo-9,10,11,12-tetrahydro-8H-[1,4]diazepino[5′,6′:4,5]thieno[3,2-f]quinolin-3-yl)phenyl)azetidin-1-yl)ethyl)piperazin-1-yl)phenyl)piperidine-2,6-dione]
IC50: < 150 nM

C[C@@H]1CNc2c(sc3ccc4nc(-c5ccc(N6CC(CCN7CCN(c8ccc(C9CCC(=O)NC9=O)cc8)CC7)C6)cc5)ccc4c23)C(=O)N1 (stereo partly drawn) [Ex 42, 3-(4-(4-(2-(1-(4-((R)-10-Methyl-8-oxo-9,10,11,12-tetrahydro-8H-[1,4]diazepino[5′,6′:4,5]thieno[3,2-f]quinolin-3-yl)phenyl)azetidin-3-yl)ethyl)piperazin-1-yl)phenyl)piperidine-2,6-dione]
IC50: < 150 nM

C[C@@H]1CNc2c(sc3ccc4nc(-c5ccc(C6CCN(CCN7CCN(c8ccc(C9CCC(=O)NC9=O)cc8)CC7)CC6)cn5)ccc4c23)C(=O)N1 (stereo partly drawn) [Ex 35, 3-(4-(4-(2-(4-(6-((R)-10-Methyl-8-oxo-9,10,11,12-tetrahydro-8H-[1,4]diazepino[5′,6′:4,5]thieno[3,2-f]quinolin-3-yl)pyridin-3-yl)piperidin-1-yl)ethyl)piperazin-1-yl)phenyl)piperidine-2,6-dione]
IC50: < 150 nM

C[C@@H]1CNc2c(sc3ccc4nc(-n5cc(C6CN(CCN7CCC(c8ccc(C9CCC(=O)NC9=O)cc8)CC7)C6)nn5)ccc4c23)C(=O)N1 (stereo partly drawn) [Ex 54, 3-(4-(1-(2-(3-(1-((R)-10-Methyl-8-oxo-9,10,11,12-tetrahydro-8H-[1,4]diazepino[5′,6′:4,5]thieno[3,2-f]quinolin-3-yl)-1H-1,2,3-triazol-4-yl)azetidin-1-yl)ethyl)piperidin-4-yl)phenyl)piperidine-2,6-dione]
IC50: < 150 nM

C[C@@H]1CNc2c(sc3ccc4nc(-c5cccc(N6CC7CC(C6)N7CCN6CCN(c7ccc8c(C9CCC(=O)NC9=O)nn(C)c8c7)CC6)c5)ccc4c23)C(=O)N1 (stereo partly drawn) [Ex 15, 3-(1-Methyl-6-(4-(2-(3-(3-((R)-10-methyl-8-oxo-9,10,11,12-tetrahydro-8H-[1,4]diazepino[5′,6′:4,5]thieno[3,2-f]quinolin-3-yl)phenyl)-3,6-diazabicyclo[3.1.1]heptan-6-yl)ethyl)piperazin-1-yl)-1H-indazol-3-yl)piperidine-2,6-dione]
IC50: < 150 nM

C[C@@H]1CNc2c(sc3ccc4nc(-c5ccc(C(=O)N[C@H]6CC[C@H](CCN7CCN(c8ccc9c(C%10CCC(=O)NC%10=O)nn(C)c9c8)CC7)CC6)cc5F)ccc4c23)C(=O)N1 (stereo partly drawn) [Ex 6, N-(trans-4-(2-(4-(3-(2,6-Dioxopiperidin-3-yl)-1-methyl-1H-indazol-6-yl)piperazin-1-yl)ethyl)cyclohexyl)-3-fluoro-4-((R)-10-methyl-8-oxo-9,10,11,12-tetrahydro-8H-[1,4]diazepino[5′,6′:4,5]thieno[3,2-f]quinolin-3-yl)benzamide]
IC50: < 150 nM

C[C@@H]1CNc2c(sc3ccc4nc(-c5ccc(C(=O)N[C@H]6C[C@H](CN7CCN(c8ccc9c(C%10CCC(=O)NC%10=O)nn(C)c9c8)CC7)C6)cc5F)ccc4c23)C(=O)N1 (stereo partly drawn) [Ex 3, N-((trans)-3-((4-(3-(2,6-Dioxopiperidin-3-yl)-1-methyl-1H-indazol-6-yl)piperazin-1-yl)methyl)cyclobutyl)-3-fluoro-4-((R)-10-methyl-8-oxo-9,10,11,12-tetrahydro-8H-[1,4]diazepino[5′,6′:4,5]thieno[3,2-f]quinolin-3-yl)benzamide]
IC50: < 150 nM

C[C@@H]1CNc2c(sc3ccc4nc(-c5cn(C6CCN(CCN7CCN(c8ccc(C9CCC(=O)NC9=O)cc8)CC7)CC6)nn5)ccc4c23)C(=O)N1 (stereo partly drawn) [Ex 49, 3-(4-(4-(2-(4-(4-((R)-10-Methyl-8-oxo-9,10,11,12-tetrahydro-8H-[1,4]diazepino[5′,6′:4,5]thieno[3,2-f]quinolin-3-yl)-1H-1,2,3-triazol-1-yl)piperidin-1-yl)ethyl)piperazin-1-yl)phenyl)piperidine-2,6-dione]
IC50: < 150 nM

C[C@@H]1CNc2c(sc3ccc4nc(-c5ccc(C6=CCN(CCN7CCN(c8ccc(C9CCC(=O)NC9=O)cc8)CC7)CC6)cc5)ccc4c23)C(=O)N1 (stereo partly drawn) [Ex 31, 3-(4-(4-(2-(4-(4-((R)-10-Methyl-8-oxo-9,10,11,12-tetrahydro-8H-[1,4]diazepino[5′,6′:4,5]thieno[3,2-f]quinolin-3-yl)phenyl)-3,6-dihydropyridin-1(2H)-yl)ethyl)piperazin-1-yl)phenyl)piperidine-2,6-dione]
IC50: < 150 nM

C[C@@H]1CNc2c(sc3ccc4nc(-c5cccc(C6CCN(CCN7CCN(c8ccc9c(C%10CCC(=O)NC%10=O)nn(C)c9c8)CC7)CC6)c5)ccc4c23)C(=O)N1 (stereo partly drawn) [Ex 19, 3-(1-Methyl-6-(4-(2-(4-(3-((R)-10-methyl-8-oxo-9,10,11,12-tetrahydro-8H-[1,4]diazepino[5′,6′:4,5]thieno[3,2-f]quinolin-3-yl)phenyl)piperidin-1-yl)ethyl)piperazin-1-yl)-1H-indazol-3-yl)piperidine-2,6-dione]
IC50: < 150 nM

C[C@@H]1CNc2c(sc3ccc4nc(-c5ccc(C6CCN(CCN7CCC(c8ccc(C9CCC(=O)NC9=O)cc8)CC7)CC6)cc5)ccc4c23)C(=O)N1 (stereo partly drawn) [Ex 29, 3-(4-(1-(2-(4-(4-((R)-10-Methyl-8-oxo-9,10,11,12-tetrahydro-8H-[1,4]diazepino[5′,6′:4,5]thieno[3,2-f]quinolin-3-yl)phenyl)piperidin-1-yl)ethyl)piperidin-4-yl)phenyl)piperidine-2,6-dione]
IC50: < 150 nM
